Source: paper PMC9652372, “Glycolytic flux control by drugging phosphoglycolate phosphatase” (Nature Communications, 2022)
“And” between values parts separate entries of the source, which are not always exact repeats. Equal values may be shown once.

Test system: HT1080 cells
Assay: NMR quantification of cellular metabolites; as to 1-Methylnicotinamide (NMR metabolite level): unit not given here; as to Acetic acid (NMR metabolite level): unit not given here; as to Glutathione (NMR metabolite level): unit not given here; as to Glycerol 3-phosphate (NMR metabolite level): unit not given here; as to Glycine (NMR metabolite level): unit not given here; as to L-Lactic acid (NMR metabolite level): unit not given here; as to L-Lysine (NMR metabolite level): unit not given here; as to L-Tyrosine (NMR metabolite level): unit not given here; as to L-Valine (NMR metabolite level): unit not given here; as to Phosphocreatine (NMR metabolite level): unit not given here; as to Pyroglutamate (NMR metabolite level): unit not given here; as to Taurine (NMR metabolite level): unit not given here; as to Tryptophan (NMR metabolite level): unit not given here
Assay type: cell-based, human
Conditions: Exp #1-5

Question: With `O=C(Nc1ccccc1C(=O)O)c1ccc(Oc2ccc(C(=O)Nc3ccccc3C(=O)O)cc2)cc1` [CP1] as the compound, how does the “Tryptophan (NMR metabolite level)” value (T3: 3h CP1-treated) read?
Answer: The value was 0.0008552 and 0.0007865 and 0.0009671 and 0.0008436 and 0.0007846.

Question: What about the “UDP-N-Acetylglucosamine (NMR metabolite level)” value (T3: 3h CP1-treated) of the same compound?
Answer: Its value is 0.00171 and 0.001573 and 0.002001 and 0.002147 and 0.00178.

Question: And the “UDP-glucose (NMR metabolite level)” value (T3: 3h CP1-treated)?
Answer: The value was 0.0008858 and 0.0008772 and 0.001067 and 0.000997 and 0.0009053.

Question: And the “myo-Inositol (NMR metabolite level)” value (T3: 3h CP1-treated)?
Answer: The value was 0.01161 and 0.01092 and 0.01214 and 0.0158 and 0.01228.

Question: And the “1-Methylnicotinamide (NMR metabolite level)” value (T24: 24h CP1-treated)?
Answer: The value was 0.0006688 and 0.0007226 and 0.00078 and 0.0009117 and 0.0008029.

Question: What about the “2-Hydroxyglutarate (NMR metabolite level)” value (T24: 24h CP1-treated) of the same compound?
Answer: The value was 0.01123 and 0.01613 and 0.01677 and 0.01849 and 0.01776.

Question: And the “ADP (NMR metabolite level)” value (T24: 24h CP1-treated)?
Answer: The value was 0.0007644 and 0.000746 and 0.001198 and 0.0008611 and 0.0008531.

Question: What about the “ATP (NMR metabolite level)” value (T24: 24h CP1-treated) of the same compound?
Answer: The value was 0.0006449 and 0.0006294 and 0.0008357 and 0.0006838 and 0.0006775.

Question: What about the “Acetic acid (NMR metabolite level)” value (T24: 24h CP1-treated) of the same compound?
Answer: The value was 0.003416 and 0.003823 and 0.003426 and 0.003622 and 0.002835.

Question: And the “Choline (NMR metabolite level)” value (T24: 24h CP1-treated)?
Answer: Its value is 0.0001911 and 0.0002098 and 0.0002507 and 0.0002533 and 0.0003011.

Question: And the “Creatine (NMR metabolite level)” value (T24: 24h CP1-treated)?
Answer: Its value is 0.005637 and 0.005968 and 0.005822 and 0.005673 and 0.00685.

Question: And the “Dimethylamine (NMR metabolite level)” value (T24: 24h CP1-treated)?
Answer: Its value is 0.01722 and 0.009371 and 0.01178 and 0.009801 and 0.01006.

Question: And the “Fumaric acid (NMR metabolite level)” value (T24: 24h CP1-treated)?
Answer: Its value is 0.0003583 and 0.0003497 and 0.0003621 and 0.0004052 and 0.0003764.

Question: And the “Glutathione (NMR metabolite level)” value (T24: 24h CP1-treated)?
Answer: The value was 0.00848 and 0.006947 and 0.009193 and 0.008991 and 0.00828.

Question: And the “Glycerol 3-phosphate (NMR metabolite level)” value (T24: 24h CP1-treated)?
Answer: Its value is 0.005316 and 0.003498 and 0.00363 and 0.003634 and 0.003759.

Question: And the “Glycerophosphocholine (NMR metabolite level)” value (T24: 24h CP1-treated)?
Answer: Its value is 0.0005972 and 0.0004662 and 0.000585 and 0.0005065 and 0.0006022.

Question: And the “Glycine (NMR metabolite level)” value (T24: 24h CP1-treated)?
Answer: Its value is 0.01727 and 0.01921 and 0.02014 and 0.02011 and 0.0205.

Question: And the “L-Alanine (NMR metabolite level)” value (T24: 24h CP1-treated)?
Answer: The value was 0.006617 and 0.007063 and 0.007716 and 0.007015 and 0.00695.

Question: And the “L-Arginine (NMR metabolite level)” value (T24: 24h CP1-treated)?
Answer: Its value is 0.002054 and 0.001585 and 0.002006 and 0.001975 and 0.001807.

Question: What about the “L-Aspartic acid (NMR metabolite level)” value (T24: 24h CP1-treated) of the same compound?
Answer: The value was 0.003296 and 0.003217 and 0.003844 and 0.003495 and 0.003463.

Question: What about the “L-Glutamic acid (NMR metabolite level)” value (T24: 24h CP1-treated) of the same compound?
Answer: The value was 0.03982 and 0.04634 and 0.04538 and 0.047 and 0.04456.

Question: What about the “L-Glutamine (NMR metabolite level)” value (T24: 24h CP1-treated) of the same compound?
Answer: Its value is 0.05231 and 0.05105 and 0.05192 and 0.04586 and 0.05314.

Question: What about the “L-Isoleucine (NMR metabolite level)” value (T24: 24h CP1-treated) of the same compound?
Answer: The value was 0.007907 and 0.007716 and 0.008078 and 0.007775 and 0.007703.

Question: And the “L-Lactic acid (NMR metabolite level)” value (T24: 24h CP1-treated)?
Answer: Its value is 0.08184 and 0.08616 and 0.0795 and 0.07679 and 0.07736.

Question: And the “L-Leucine (NMR metabolite level)” value (T24: 24h CP1-treated)?
Answer: Its value is 0.00676 and 0.006597 and 0.007883 and 0.007192 and 0.007251.

Question: And the “L-Lysine (NMR metabolite level)” value (T24: 24h CP1-treated)?
Answer: Its value is 0.002293 and 0.002238 and 0.002674 and 0.002431 and 0.002409.

Question: What about the “L-Methionine (NMR metabolite level)” value (T24: 24h CP1-treated) of the same compound?
Answer: The value was 0.002389 and 0.002331 and 0.002786 and 0.00276 and 0.002509.

Question: What about the “L-Phenylalanine (NMR metabolite level)” value (T24: 24h CP1-treated) of the same compound?
Answer: The value was 0.004013 and 0.003916 and 0.004123 and 0.003976 and 0.003889.

Question: And the “L-Threonine (NMR metabolite level)” value (T24: 24h CP1-treated)?
Answer: The value was 0.01522 and 0.01471 and 0.01638 and 0.01537 and 0.01478.

Question: What about the “L-Tyrosine (NMR metabolite level)” value (T24: 24h CP1-treated) of the same compound?
Answer: The value was 0.004491 and 0.004849 and 0.004652 and 0.004635 and 0.00424.

Question: What about the “L-Valine (NMR metabolite level)” value (T24: 24h CP1-treated) of the same compound?
Answer: The value was 0.007668 and 0.007693 and 0.007744 and 0.00775 and 0.007678.

Question: What about the “N,N-Dimethylformamide (NMR metabolite level)” value (T24: 24h CP1-treated) of the same compound?
Answer: The value was 0.0002389 and 0.0002331 and 0.0002786 and 0.0002533 and 0.0002509.

Question: And the “NAD+ (NMR metabolite level)” value (T24: 24h CP1-treated)?
Answer: The value was 0.002341 and 0.002611 and 0.002619 and 0.002533 and 0.002635.

Question: What about the “NADH (NMR metabolite level)” value (T24: 24h CP1-treated) of the same compound?
Answer: The value was 0.0002389 and 0.0002331 and 0.0003343 and 0.0002786 and 0.0002509.

Question: And the “Phosphocreatine (NMR metabolite level)” value (T24: 24h CP1-treated)?
Answer: Its value is 0.001027 and 0.001002 and 0.001198 and 0.001165 and 0.001179.

Question: And the “Phosphorylcholine (NMR metabolite level)” value (T24: 24h CP1-treated)?
Answer: Its value is 0.002054 and 0.002168 and 0.002256 and 0.002102 and 0.002158.

Question: And the “Pyroglutamate (NMR metabolite level)” value (T24: 24h CP1-treated)?
Answer: The value was 0.005255 and 0.004942 and 0.004596 and 0.005597 and 0.005796.

Question: And the “Pyruvate (NMR metabolite level)” value (T24: 24h CP1-treated)?
Answer: The value was 0.001983 and 0.001422 and 0.001532 and 0.001798 and 0.001932.

Question: What about the “Serine (NMR metabolite level)” value (T24: 24h CP1-treated) of the same compound?
Answer: Its value is 0.005566 and 0.004965 and 0.004429 and 0.005901 and 0.004792.

Question: What about the “Taurine (NMR metabolite level)” value (T24: 24h CP1-treated) of the same compound?
Answer: The value was 0.00922 and 0.008998 and 0.009499 and 0.01099 and 0.01194.

Question: And the “Tryptophan (NMR metabolite level)” value (T24: 24h CP1-treated)?
Answer: The value was 0.0007883 and 0.0007693 and 0.0007243 and 0.0007851 and 0.0008029.

Question: And the “UDP-N-Acetylglucosamine (NMR metabolite level)” value (T24: 24h CP1-treated)?
Answer: Its value is 0.003941 and 0.005105 and 0.006156 and 0.005242 and 0.005269.

Question: And the “UDP-glucose (NMR metabolite level)” value (T24: 24h CP1-treated)?
Answer: Its value is 0.001935 and 0.001888 and 0.002981 and 0.002533 and 0.002559.

Question: And the “myo-Inositol (NMR metabolite level)” value (T24: 24h CP1-treated)?
Answer: The value was 0.007859 and 0.009021 and 0.01109 and 0.01281 and 0.00961.
